What was measured:
[1] = depot formation at the injection site after intramuscular injection in goats; format: in vivo, goat
Protocol: An injection site depot from another goat to which free Samorin in aqueous solution was administered by the same route and at the same dosage as that from this Example was noted to be more diffuse.
Liposomal Berenil was recovered from each depot.

trypanosomiasis = settings: free drug, cited from earlier work; for period of protection (prophylaxis): Samorin at 0.5-1.0 mg/kg, dependent on dosage and tsetse fly challenge
[2] = cited from earlier work; for side effects: free drug, 1 mg/kg for homidium and 0.5-1.0 mg/kg for Samorin
[3] = free drug in aqueous solution; cited from earlier work

| SMILES | period of protection (prophylaxis) (trypanosomiasis) | side effects [2] | further results |
| --- | --- | --- | --- |
| N=C(N)c1ccc(N=NNc2ccc(C(=N)N)cc2)cc1 [Berenil, diminazene aceturate] | a few days only |  | depot at the injection site ([1]; goat, intramuscular, 3.5 mg/kg live weight (calculated as active ingredient)): no indication of a depot |
| CC[n+]1c(-c2ccccc2)c2cc(N)ccc2c2ccc(N)cc21 [Homidium chloride, 2,7-diamino-9-phenyl-10-ethylphenanthridinium] | ≤ 60 days |  |  |
| CC[n+]1c(-c2ccccc2)c2cc(NN=Nc3cccc(C(=N)N)c3)ccc2c2ccc(N)cc21.Cl.[Cl-] [Samorin, 8-[(m-amidinophenylazo)amino]-3-amino-5-ethyl-6-phenylphenanthridinium chloride hydrochloride] | 60 to 120 days | reaction by the injected tissue to the drug | depot at the injection site ([1]; goat culled 15 days after intramuscular administration, 1 mg/kg live weight Samorin): more diffuse; dosage with therapeutic trypanocidal action (trypanosomiasis): 0.25 mg/kg |
| CC[n+]1c(-c2ccccc2)c2cc(N)ccc2c2ccc(N)cc21 [homidium, 2,7-diamino-9-phenyl-10-ethylphenanthridinium] |  | infrequent | drug depots after administration of free drug ([2]; intramuscular, free drug in aqueous solution): diffuse staining of muscle tissue |
| CC[n+]1c(-c2ccccc2)c2cc(N/N=N/c3cccc(C(=N)N)c3)ccc2c2ccc(N)cc21.[Cl-] [isometamidium chloride] |  |  | stability in aqueous solution [3]: rapid lability |
